Assays:
[1] = target: T1, GST tagged LXRalpha LBD (ligand binding domain) (Homo sapiens, UniProt Q13133); assay: LanthaScreen TR-FRET Liver X Receptor Coactivator Assay, LXR alpha-LBD; type: biochemical; conditions: relative to reference T0901317; for EC50 / LXR alpha IP (nM): Inflection Point (potency), co-activator recruitment; for EC50: read-out: LXR alpha IP; for Emax: activity at max dose (efficacy), read-out: LXR alpha act @ max dose (%)
T1 construct: purchased Invitrogen pv4655
T1 sequence (Q13133 209-447 limits assumed): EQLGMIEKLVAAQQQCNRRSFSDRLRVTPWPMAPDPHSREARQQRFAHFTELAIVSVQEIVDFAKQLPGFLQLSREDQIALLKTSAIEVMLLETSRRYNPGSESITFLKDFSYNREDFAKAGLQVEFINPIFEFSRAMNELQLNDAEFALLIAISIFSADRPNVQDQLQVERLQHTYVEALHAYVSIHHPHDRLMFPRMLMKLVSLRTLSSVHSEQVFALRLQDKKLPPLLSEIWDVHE
Protocol: (§1) Potency (Inflection Point, IP) and efficacy (Emax) are evaluated via compound-induced co-activator recruitment to glutathione-S-transferase (GST) tagged LXRbeta and LXRalpha LBD (ligand binding domain) proteins in relation to reference dual agonist compound T0901317 (N-(2,2,2-Trifluoroethyl)-N-[4-[2,2,2-trifluoro-1-hydroxy-1-(trifluoromethyl)ethyl] phenyl]benzenesulfonamide) using the LanthaScreen™ TR-FRET Liver X Receptor Coactivator Assays according to manufacturer's instructions (Invitrogen catalog number pv4658.pps and pv4655). While running the LanthaScreen™ TR-FRET Liver X Receptor Coactivator Assay, LXR alpha-LBD or LXR beta-LBD was added to ligand test compounds followed by addition of a mixture of a fluorescein-labelled coactivator peptide and terbium-conjugated anti-GST antibody. After an incubation period at room temperature, TR-FRET (time-resolved fluorescence resonance energy transfer) was measured using a filter-based instrument capable of TR-FRET, e.g. PerkinElmer Envision.

[2] = target: T2, GST tagged LXRbeta LBD (ligand binding domain) (Homo sapiens, UniProt P55055); assay: LanthaScreen TR-FRET Liver X Receptor Coactivator Assay, LXR beta-LBD; type: biochemical; conditions: relative to reference T0901317; for EC50: Inflection Point (potency), co-activator recruitment, read-out: LXR beta IP; for Emax: activity at max dose (efficacy), read-out: LXR beta act @ max dose (%)
T2 construct: purchased Invitrogen pv4658.pps
T2 sequence (P55055 222-460 limits assumed): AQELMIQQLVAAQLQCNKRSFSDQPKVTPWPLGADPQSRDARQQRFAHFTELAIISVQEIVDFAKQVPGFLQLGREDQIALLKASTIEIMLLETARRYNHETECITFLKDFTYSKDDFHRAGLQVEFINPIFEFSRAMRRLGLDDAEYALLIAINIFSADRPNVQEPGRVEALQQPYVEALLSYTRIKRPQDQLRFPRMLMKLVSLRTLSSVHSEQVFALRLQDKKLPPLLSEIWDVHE
Protocol: as §1

Row | SMILES | EC50 [1] [nM] | Emax [1] [%] | EC50 [2] [nM] | Emax [2] [%] | LXR alpha IP (nM) [1]
1 | CC(C)(C)OC(=O)NC1CN(C(=O)c2ccc(N3CCC(C4CCN(C(=O)OC(C)(C)C)CC4)CC3)cc2Cl)C1 [Example E-68, tert-butyl 1′-[4-({3-[(tert-butoxycarbonyl)amino]azetidin-1-yl}carbonyl)-3-chlorophenyl]-4,4′-bipiperidine-1-carboxylate] | 367 | 64 | 29 | 92 | 
2 | CN(C)C(=O)c1ccc(N2CCC(C3CCN(S(=O)(=O)c4c(Cl)cccc4Cl)CC3)CC2)cc1Cl [Example A-104, 2-chloro-4-{1′-[(2,6-dichlorophenyl)sulfonyl]-4,4′-bipiperidin-1-yl}-N,N-dimethylbenzamide] | 2340 | 67 | 21 | 129 | 
3 | CN(C)C(=O)c1ccc(N2CCC(C3CCN(C(=O)C(c4ccccc4)C(F)(F)F)CC3)CC2)cc1Cl (stereo not drawn) [Example A-98, 2-chloro-N,N-dimethyl-4-[1′-(3,3,3-trifluoro-2-phenylpropanoyl)-4,4′-bipiperidin-1-yl]benzamide] | 4960 | 33 | 324 | 92 | 
4 | CN(C)C(=O)c1ccc(N2CCC(C3CCN(C(=O)C4(c5ccccc5Cl)CCCC4)CC3)CC2)cc1Cl [Example A-94, 2-chloro-4-(1′-{[1-(2-chlorophenyl)cyclopentyl]carbonyl}-4,4′-bipiperidin-1-yl)-N,N-dimethylbenzamide] | 250 | 67 | 13 | 124 | 
5 | CN(C)C(=O)c1ccc(N2CCC(C3CCN(C(=O)C(O)(C(F)(F)F)C4(C)CC4)CC3)CC2)cc1Cl (stereo not drawn) [Example A-30, 2-chloro-N,N-dimethyl-4-{1′-[3,3,3-trifluoro-2-hydroxy-2-(1-methylcyclopropyl)propanoyl]-4,4′-bipiperidin-1-yl}benzamide] | 2120 | 62 | 73 | 119 | 
6 | CCN(CC)C(=O)c1ccc(N2CCC(C3CCN(C(=O)c4c(F)cccc4F)CC3)CC2)cc1Cl [Example E-14, 2-chloro-4-{1′-[(2,6-difluorophenyl)carbonyl]-4,4′-bipiperidin-1-yl}-N,N-diethylbenzamide] | 1890 | 30 | 289 | 78 | 
7 | CN(C)C(=O)c1ccc(N2CCC(C3CCN(C(=O)C4(C(F)(F)F)CCCC4)CC3)CC2)cc1Cl [Example A-28, 2-chloro-N,N-dimethyl-4-(1′-{[1-(trifluoromethyl)cyclopentyl]carbonyl}-4,4′-bipiperidin-1-yl)benzamide] | 2470 | 73 | 173 | 123 | 
8 | CC(C)C(O)(C(=O)N1CCC(C2CCN(c3ccc(C(=O)N4CCOCC4)c(Cl)c3)CC2)CC1)C(F)(F)F (stereo not drawn) [Example E-8, 2-({1′-[3-chloro-4-(morpholin-4-ylcarbonyl)phenyl]-4,4′-bipiperidin-1-yl}carbonyl)-1,1,1-trifluoro-3-methylbutan-2-ol] | 1190 | 29 | 149 | 65 | 
9 | CN(C)C(=O)c1ccc(N2CCC(C3CCN(C(=O)C4(C(F)(F)F)CCC4)CC3)CC2)cc1Cl [Example A-29, 2-chloro-N,N-dimethyl-4-(1′-{[1-(trifluoromethyl)cyclobutyl]carbonyl}-4,4′-bipiperidin-1-yl)benzamide] | 3580 | 46 | 526 | 106 | 
10 | O=C(c1ccc(N2CCC(C3CCN(C(=O)[C@](O)(c4ccccc4)C(F)(F)F)CC3)CC2)cc1Cl)N1CC(F)(F)C1 [Example E-34, (2R)-3-(1′-{3-chloro-4-[(3,3-difluoroazetidin-1-yl)carbonyl]phenyl}-4,4′-bipiperidin-1-yl)-1,1,1-trifluoro-3-oxo-2-phenylpropan-2-ol] |  | 28 | 450 | 83 | NO IP
11 | CN(C)C(=O)c1ccc(N2CCC(C3CCN(C(=O)c4c(F)cccc4C(F)(F)F)CC3)CC2)cc1Cl [Example A-25, 2-chloro-4-(1′-{[2-fluoro-6-(trifluoromethyl)phenyl]carbonyl}-4,4′-bipiperidin-1-yl)-N,N-dimethylbenzamide] | 3540 | 54 | 113 | 109 | 
12 | CC(C)C(O)(C(=O)N1CCC(C2CCN(c3ccc(C(=O)N4CCCC4)c(Cl)c3)CC2)CC1)C(F)(F)F (stereo not drawn) [Example E-7, 2-({1′-[3-chloro-4-(pyrrolidin-1-ylcarbonyl)phenyl]-4,4′-bipiperidin-1-yl}carbonyl)-1,1,1-trifluoro-3-methylbutan-2-ol] | 1920 | 32 | 108 | 74 | 
13 | CN(C)C(=O)c1ccc(N2CCC(C3CCN(C(=O)C(C)(C)c4ccccc4)CC3)CC2)nc1Cl [Example B-12, 2-chloro-N,N-dimethyl-6-[1′-(2-methyl-2-phenylpropanoyl)-4,4′-bipiperidin-1-yl]pyridine-3-carboxamide] | 684 | 69 | 65 | 140 | 
14 | CN(C)C(=O)c1ccc(N2CCC(C3CCN(C(=O)C(O)(C(C)(C)C)C(F)(F)F)CC3)CC2)cc1Cl (single isomer, unassigned) [Example A-6, 2-Chloro-4-(1′-(2-hydroxy-3,3-dimethyl-2-(trifluoromethyl)butanoyl)-[4,4′-bipiperidin]-1-yl)-N,N-dimethylbenzamide] | 626 | 70 | 24 | 107 | 
15 | CN(C)C(=O)c1ccc(N2CCC(C3CCN(C(=O)C(C)(C)c4ccccc4F)CC3)CC2)cc1Cl [Example A-80, 2-chloro-4-{1′-[2-(2-fluorophenyl)-2-methylpropanoyl]-4,4′-bipiperidin-1-yl}-N,N-dimethylbenzamide] | 1170 | 67 | 31 | 116 | 
16 | CN(C)C(=O)c1ccc(N2CCC(C3CCN(c4ccccc4Cl)CC3)CC2)cc1Cl [Example A-107, 2-chloro-4-[1′-(2-chlorophenyl)-4,4′-bipiperidin-1-yl]-N,N-dimethylbenzamide] |  | 17 | 825 | 62 | NO IP
17 | CN(CCO)C(=O)c1ccc(N2CCC(C3CCN(C(=O)[C@](O)(c4ccccc4)C(F)(F)C(F)(F)F)CC3)CC2)cc1Cl [Example E-64, 2-chloro-N-(2-hydroxyethyl)-N-methyl-4-{1′-[(2R)-3,3,4,4,4-pentafluoro-2-hydroxy-2-phenylbutanoyl]-4,4′-bipiperidin-1-yl}benzamide] | 913 | 54 | 26 | 146 | 
18 | CN(C)C(=O)c1ccc(N2CCC(C3CCN(C(=O)C4(c5cccc(F)c5)CCC4)CC3)CC2)cc1Cl [Example A-17, 2-chloro-4-(1′-{[1-(3-fluorophenyl)cyclobutyl]carbonyl}-4,4′-bipiperidin-1-yl)-N,N-dimethylbenzamide] | 2260 | 14 | 204 | 100 | 
19 | CN(C)S(=O)(=O)c1ccc(N2CCC(C3CCN(C(=O)[C@](O)(c4ccccc4)C(F)(F)F)CC3)CC2)cc1Cl [Example D-4, 2-chloro-N,N-dimethyl-4-{1′-[(2R)-3,3,3-trifluoro-2-hydroxy-2-phenylpropanoyl]-4,4′-bipiperidin-1-yl}benzenesulfonamide] | 2050 | 29 | 371 | 89 | 
20 | COc1ccccc1C(C)(C)C(=O)N1CCC(C2CCN(c3ccc(C(=O)N(C)C)c(Cl)c3)CC2)CC1 [Example A-88, 2-chloro-4-{1′-[2-(2-methoxyphenyl)-2-methylpropanoyl]-4,4′-bipiperidin-1-yl}-N,N-dimethylbenzamide] | 1080 | 37 | 74 | 101 | 
21 | CN(C)C(=O)c1ccc(N2CCC(C3CCN(C(=O)[C@@](O)(c4ccccc4)C(F)(F)C(F)(F)F)CC3)CC2)cc1Cl (single isomer, unassigned) [Example A-43] | 620 | 40 | 54 | 128 | 
